The text below walks through data of patent publication US7528148B2, “Pyrazolo[3,4-B]pyridine compounds, and their use as phosphodiesterase inhibitors” (Glaxo Group Limited, priority 2002, dated 2009).

Structures are written as SMILES.

Data set [1] concerns microfilaricidal activity. To be noted: cited from earlier work.
The subject of data set [2] is LPS-induced pulmonary neutrophilia and emesis in the conscious ferret. In words: In vivo Assay 4: therapeutic index of orally-administered PDE4 inhibitors in the conscious ferret. The procedure: In vivo Assay 4. Evaluation of Therapeutic Index of Orally-administered PDE 4 Inhibitors in the Conscious Ferret
PDE4 inhibitors are prepared for oral p.o.) administration by dissolving in a fixed volume (1 ml) of acetone and then adding cremophor to 20% of the final volume. Acetone is evaporated by directing a flow of nitrogen gas onto the solution. Once the acetone is removed, the solution is made up to final volume with distilled water. LPS is dissolved in phosphate buffered saline.
Male ferrets (Mustela Pulorius Furo, weighing 1-2 kg) are transported and allowed to acclimatise for not less than 7 days. The diet comprises SDS diet C pelleted food given ad lib with Whiskers™ cat food given 3 times per week. The animals are supplied with pasteurised animal grade drinking water changed daily.
PDE4 inhibitors are administered orally (p.o.), using a dose volume of 1 ml/kg.
Ferrets are fasted overnight but allowed free access to water. The animals are orally dosed with vehicle or PDE 4 inhibitor using a 15 cm dosing needle that is passed down the back of the throat into the oesophagus. After dosing, the animals are returned to holding cages fitted with perspex doors to allow observation, and given free access to water. The animals are constantly observed and any emetic episodes (retching and vomiting) or behavioural changes are recorded. […]
Thirty minutes after oral dosing with compound or vehicle control, the ferrets are placed into sealed perspex containers and exposed to an aerosol of LPS (30 μg/ml) for 10 minutes. […] All emetic episodes and behavioural changes are recorded.
Six hours after LPS exposure the animals are killed by overdose of sodium pentobarbitone administered intraperitoneally. […] From this, the total number of neutrophils in the BAL sample is determined. […]
b) Emetic episodes—the number of vomits and retches are counted to determine the dose of PDE4 inhibitor that gives a 20% incidence of emesis (D20).
c) A therapeutic index (TI), using this assay, is then calculated for each PDE4 inhibitor using the following equation: […]

On to `CC1Cc2ccccc2C(c2cnc3c(c(-c4ccccc4)nn3-c3ccccc3)c2O)=N1` (centres unmarked), for which the microfilaricidal activity entry in data set [1] is recorded as “no significant microfilaricidal activity”.
Turning to `Oc1c(C2=NCCc3ccccc32)cnc2c1c(-c1ccccc1)nn2-c1ccccc1` [4-hydroxy-1,3-diphenyl-5-(3′,4′-dihydroisoquinol-1′-yl)-pyrazolo[3,4-b]pyridine, reference compound], the microfilaricidal activity result in data set [1] is “no significant microfilaricidal activity”.
As to `O=C(Nc1c(Cl)cncc1Cl)c1ccc(OC(F)F)c(OCC2CC2)c1` [roflumilast], in data set [2] (D20/D50, p.o.), the “Ferret TI” value was found to be 1.1. The compound also came in with a D20 for emesis in data set [2] (ferret, p.o., dose giving 20% incidence of emesis) of 0.46 mg/kg. The “D50 for ferret neutrophilia” value in data set [2] (ferret, p.o., dose giving 50% inhibition of LPS-induced pulmonary neutrophilia) was 0.42 mg/kg.
